This passage reports EC50 results from patent US8815909B2, “Diaminocyclohexane compounds and uses thereof” (Bristol-Myers Squibb Company, priority 2011, dated 2014).

Where two headings read alike, the source gives them in different places.

For the experiment, the target named is T1, human Y4 receptor (Homo sapiens, UniProt P50391).
T1 construct: expressed in transfected cells
Nature of the experiment: NPY4 cAMP HTRF Agonist Assay (inhibitory cAMP assay, Gi activation by Y4 agonism). The experiment is classed as cell-based. The note with it: read-out: hY4 CAMP EC50. A digest of the protocol: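 Y4 agonism read as lowered forskolin-stimulated cAMP (HTRF, 1 h detection at room temperature). Stable human Y4 CHO clone, 5000 cells/well, incubated 30 min at room temperature with compounds plus forskolin and IBMX in PBS.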
A general note: In TR-FRET formats the signal depends on donor and acceptor labels being close together.

T1 sequence (P50391 whole entry): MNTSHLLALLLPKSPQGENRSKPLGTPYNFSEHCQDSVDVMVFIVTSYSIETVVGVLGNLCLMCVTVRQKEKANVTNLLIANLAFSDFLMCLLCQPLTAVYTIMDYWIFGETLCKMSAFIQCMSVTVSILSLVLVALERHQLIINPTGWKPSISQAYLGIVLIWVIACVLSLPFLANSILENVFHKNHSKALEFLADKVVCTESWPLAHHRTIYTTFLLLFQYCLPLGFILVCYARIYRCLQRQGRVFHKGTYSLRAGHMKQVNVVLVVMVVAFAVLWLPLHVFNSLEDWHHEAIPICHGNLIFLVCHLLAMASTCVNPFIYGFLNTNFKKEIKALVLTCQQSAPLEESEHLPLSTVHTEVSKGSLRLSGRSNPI

As usually defined, the EC50 is the concentration giving half of the maximal effect. Regarding `C[C@]1(N[C@@H]2CCCC[C@H]2Nc2cc(-c3cccc(C(N)=O)c3)ccn2)CCCN(c2ccc(C(F)(F)F)nc2)C1` [Example 323], the EC50 (TABLE 5, R2 is Pyridinyl-CF3) came to 17 nM. For the molecule `O=C(O)c1cccc(-c2cnc(N[C@@H]3CCCC[C@H]3N[C@H]3CCCN(c4ccc(C(F)(F)F)nc4)C3)o2)c1` [Example 324], the EC50 (TABLE 5, R2 is Pyridinyl-CF3) was found to be 52 nM. The same measure, in the same setting: to `NC(=O)c1cccc(-c2cnc(N[C@@H]3CCCC[C@H]3N[C@H]3C[C@@H]4C[C@H]3N(c3ccnc(C(F)(F)F)c3)C4)o2)c1` [Example 325] belongs 567 nM; to `NC(=O)c1cccc(-c2cnc(N[C@@H]3CCCC[C@H]3N[C@H]3C[C@@H]4C[C@H]3N(c3ccc(C(F)(F)F)cn3)C4)o2)c1` [Example 326], 9 nM. `NC(=O)c1cccc(-c2ccnc(N[C@@H]3CCCC[C@H]3N[C@H]3C[C@@H]4C[C@H]3N(c3ccc(C(F)(F)F)nc3)C4)c2)c1` [Example 327]: under “TABLE 5, R2 is Pyridinyl-CF3”, the EC50 turned out to be 180 nM. On to `NC(=O)c1cccc(-c2cnc(N[C@@H]3CCCC[C@H]3N[C@H]3C[C@@H]4C[C@H]3N(c3ccc(C(F)(F)F)nc3)C4)o2)c1` [Example 328], for which the EC50 (TABLE 5, R2 is Pyridinyl-CF3) turned out to be 31 nM.

Take `C[C@]1(N[C@@H]2CCCC[C@H]2Nc2ncc(-c3cccc(C(N)=O)c3)o2)CCCN(c2ccc(C(F)(F)F)cn2)C1` [Example 329]: where the note is “TABLE 5, R2 is Pyridinyl-CF3”, the concentration for a half-maximal effect (EC50) came to 1 nM. For `COC(=O)c1cccc(-c2cnc(N[C@@H]3CCCC[C@H]3N[C@H]3CCCN(c4ccc(C(F)(F)F)cn4)C3)o2)c1` [Example 330], the EC50 (TABLE 5, R2 is Pyridinyl-CF3) is 166 nM. As for `COC(=O)Nc1cccc(-c2cnc(N[C@@H]3CCCC[C@H]3N[C@H]3CCCN(c4ccc(C(F)(F)F)nc4)C3)o2)c1` [Example 331], where the note is “TABLE 5, R2 is Pyridinyl-CF3”, the EC50 was found to be 5 nM.

In the case of `C[C@]1(N[C@@H]2CCCC[C@H]2Nc2cc(-c3cccc(C(N)=O)c3)ccn2)CCCN(c2ccc(C(F)(F)F)cn2)C1` [Example 332], the EC50 (TABLE 5, R2 is Pyridinyl-CF3) stood at 24 nM.

As for `CC(C)(C)OC(=O)Nc1cccc(-c2cnc(N[C@@H]3CCCC[C@H]3N[C@H]3CCCN(c4ccc(C(F)(F)F)nc4)C3)o2)c1` [Example 333], under “TABLE 5, R2 is Pyridinyl-CF3”, the EC50 came to 95 nM. Take `O=C(Nc1cccc(-c2cnc(N[C@@H]3CCCC[C@H]3N[C@H]3CCCN(c4ccc(C(F)(F)F)nc4)C3)o2)c1)C1CC1` [Example 334]: the EC50 (TABLE 5, R2 is Pyridinyl-CF3) amounted to 3 nM. For the molecule `COc1ccc(-c2cnc(N[C@@H]3CCCC[C@H]3N[C@H]3CCCN(c4ccc(C(F)(F)F)nc4)C3)o2)cc1C#N` [Example 335], under “TABLE 5, R2 is Pyridinyl-CF3”, the EC50 came to 1600 nM. Still for that read-out and setting: to `FC(F)(F)Oc1ccc(-c2cnc(N[C@@H]3CCCC[C@H]3N[C@H]3CCCN(c4ccnc(C(F)(F)F)c4)C3)o2)cc1` [Example 336] belongs 212 nM. Same read-out and setting: to `NC(=O)c1cccc(-c2ccnc(N[C@@H]3CCCC[C@H]3N[C@H]3C[C@@H]4C[C@H]3N(c3ccc(C(F)(F)F)cn3)C4)c2)c1` [Example 337] belongs 26 nM. For the molecule `FC(F)(F)Oc1ccc(-c2cnc(N[C@@H]3CCCC[C@H]3N[C@H]3C[C@@H]4C[C@H]3N(c3ccc(C(F)(F)F)cn3)C4)o2)cc1` [Example 338], the EC50 (TABLE 5, R2 is Pyridinyl-CF3) was determined as 226 nM.

With `COC(=O)Nc1cccc(-c2ccnc(N[C@@H]3CCCC[C@H]3N[C@H]3CCCN(c4ccc(-c5noc(C)n5)cc4)C3)c2)c1` [Example 339], where the note is “human Y4 receptor, cAMP”, the EC50 is 0.1 nM. On the same count and under the same terms, to `CCOC(=O)Nc1cccc(-c2cnc(N[C@@H]3CCCC[C@H]3N[C@H]3CCCN(c4ccc(-c5noc(C)n5)cc4)C3)o2)c1` [Example 340] belongs 3 nM.

As to `Cc1nc(-c2ccc(N3CCC[C@H](N[C@@H]4CCCC[C@H]4Nc4cc(-c5cccc(OC(F)(F)F)c5)ccn4)C3)cc2)no1` [Example 341], the EC50 (human Y4 receptor, cAMP) turned out to be 123 nM. On to `Cc1nc(-c2ccc(N3CCC[C@H](N[C@@H]4CCCC[C@H]4Nc4cc(-c5ccc(F)c(F)c5)ccn4)C3)cc2)no1` [Example 342], for which, where the note is “human Y4 receptor, cAMP”, the EC50 worked out at 8 nM. On the same count and under the same terms, to `Cc1nc(-c2ccc(N3CCC[C@H](N[C@@H]4CCCC[C@H]4Nc4cc(-c5ccc(F)cc5F)ccn4)C3)cc2)no1` [Example 343] belongs 11 nM; to `Cc1nnc(-c2ccc(N3CCCC(N[C@@H]4CCCC[C@H]4Nc4cc(-c5cccnc5)ccn4)C3)cc2)o1` (stereo partly shown) [Example 345], 64 nM. Same read-out and setting: under `Cc1nnc(-c2ccc(N3CCC[C@H](N[C@@H]4CCCC[C@H]4Nc4ncc(-c5cccc(C(N)=O)c5)o4)C3)cc2)o1` [Example 346] stands 306 nM; under `Cc1nc(-c2ccc(N3CCC[C@H](N[C@@H]4CCCC[C@H]4Nc4cc(-c5cccc(C(N)=O)c5)ccn4)C3)cc2)no1` [Example 347], 0.2 nM. Regarding `Cc1nnc(-c2ccc(N3CCC[C@H](N[C@@H]4CCCC[C@H]4Nc4ncc(-c5ccccc5OC(F)(F)F)o4)C3)cc2)o1` [Example 348], where the note is “human Y4 receptor, cAMP”, the EC50 was 3 nM.

`Cc1nnc(-c2ccc(N3CCC[C@H](N[C@@H]4CCCC[C@H]4Nc4cc(-c5cccc(C(N)=O)c5)ccn4)C3)cc2)o1` [Example 349]: the EC50 (human Y4 receptor, cAMP) came to 1 nM. Regarding `Cc1nc(-c2ccc(N3C[C@@H]4C[C@H](N[C@@H]5CCCC[C@H]5Nc5nccc(-c6ccccc6)n5)[C@H]3C4)cc2)no1` [Example 350], the EC50 (human Y4 receptor, cAMP) came out at 9 nM. For the molecule `Cc1nc(-c2ccc(N3C[C@@H]4C[C@H](N[C@@H]5CCCC[C@H]5Nc5ncc(-c6ccc(OC(F)(F)F)cc6)o5)[C@H]3C4)cc2)no1` [Example 351], the EC50 (human Y4 receptor, cAMP) was determined as 448 nM.

Consider `Cc1nnc(-c2ccc(N3CCC[C@H](N[C@@H]4CCCC[C@H]4Nc4cc(Br)ccn4)C3)cc2)o1` [Example 352], for which the EC50 (human Y4 receptor, cAMP) came to 318 nM. The same measure, in the same setting: under `Cc1nc(-c2ccc(N3C[C@@H]4C[C@H](N[C@@H]5CCCC[C@H]5Nc5cc(-c6cccc(C(N)=O)c6)ccn5)[C@H]3C4)cc2)no1` [Example 353] stands 1 nM; under `Cc1noc(-c2ccc(N3CCC[C@H](N[C@@H]4CCCC[C@H]4Nc4nccc(-c5ccccc5)n4)C3)cc2)n1` [Example 354], 15 nM; under `Cc1noc(-c2ccc(N3CCC[C@H](N[C@@H]4CCCC[C@H]4Nc4ncc(-c5ccc(OC(F)(F)F)cc5)o4)C3)cc2)n1` [Example 355], 225 nM.

Consider `Cc1nnc(-c2ccc(N3CCCC(N[C@@H]4CCCC[C@H]4Nc4cc(-c5cccc(OC(F)(F)F)c5)ccn4)C3)cc2)o1` (stereo partly shown) [Example 358], for which the EC50 (human Y4 receptor, cAMP) is 17 nM. Still for that read-out and setting: to `Cc1noc(-c2ccc(N3CCC[C@H](N[C@@H]4CCCC[C@H]4Nc4cc(-c5cccc(C(C)(C)O)c5)ccn4)C3)cc2)n1` [Example 362] belongs 23 nM; to `Cc1noc(-c2ccc(N3CCC[C@H](N[C@@H]4CCCC[C@H]4Nc4cc(-c5cccc(OC(F)(F)F)c5)ccn4)C3)cc2)n1` [Example 363], 314 nM. On the same count and under the same terms, to `Cc1nnc(-c2ccc(N3CCCC(N[C@@H]4CCCC[C@H]4Nc4cc(-c5ccc(F)cc5)ccn4)C3)cc2)o1` (stereo partly shown) [Example 364] belongs 3 nM; to `Cc1nnc(-c2ccc(N3CCCC(N[C@@H]4CCCC[C@H]4Nc4cc(-c5ccc(Cl)cc5)ccn4)C3)cc2)o1` (stereo partly shown) [Example 365], 52 nM. On to `COc1ccc(-c2ccnc(N[C@@H]3CCCC[C@H]3NC3CCCN(c4ccc(-c5nnc(C)o5)cc4)C3)c2)cc1` (stereo partly shown) [Example 366], for which the EC50 (human Y4 receptor, cAMP) was found to be 323 nM. Regarding `Cc1nnc(-c2ccc(N3CCCC(N[C@@H]4CCCC[C@H]4Nc4cc(-c5ccccc5F)ccn4)C3)cc2)o1` (stereo partly shown) [Example 367], under “human Y4 receptor, cAMP”, the EC50 was 9 nM. Take `Cc1nnc(-c2ccc(N3CCCC(N[C@@H]4CCCC[C@H]4Nc4cc(-c5ccc6c(c5)OCO6)ccn4)C3)cc2)o1` (stereo partly shown) [Example 368]: for the setting “human Y4 receptor, cAMP”, the EC50 came to 39 nM.
